Results taken from patent US7713987B2, “Pyrimidine-2,4-diamines and their uses” (Rigel Pharmaceuticals, Inc., priority 2005, dated 2010).

What was measured:
[1] = Metabolic stability of prodrugs in rat hepatic microsomes; format: in vitro ADME; settings: in the presence of NADPH, first value of cell, read-out: T1/2 (half-life of prodrug)
Protocol: (§1) Selected compounds were incubated in rat and human hepatic microsomes (with and without NADPH) and analyzed by LC/MS/MS for both the prodrug and pyrimidine-2,4-diamine.
(§2) Studies were conducted in microsomes to determine whether the prodrug moieties could be hydrolyzed by CYP450 enzymes.

[2] = Pharmacokinetics of the compounds in sprague-dawley rats (oral and IV bolus, plasma LC/MS/MS); format: in vivo
Protocol: Compounds were administered to rats orally at a dose of 4-5 mg/kg using PEG-400 as a vehicle. Selected compounds were also administered as an IV bolus at a dose of 1 mg/kg. Plasma samples were obtained from either the portal or jugular veins and analyzed by LC/MS/MS for both the parent pyrimidine-2,4-diamine and the prodrug compounds synthesized in the examples above. Bioavailability was calculated using the AUC of pyrimidine-2,4-diamine in jugular vein samples and the AUC of an IV bolus dose of pyrimidine-2,4-diamine. For selected compounds, portal vein samples were evaluated for both prodrug and pyrimidine-2,4-diamine and the information was used to determine the percent absorption of the orally administered dose.

[3] = Metabolic stability of prodrugs in human hepatic microsomes; format: in vitro ADME; settings: in the presence of NADPH, second value of cell, read-out: T1/2 (half-life of prodrug)
Protocol: as §1, §2

| Structure (SMILES) | half-life [1] [min] | % of prodrug absorbed ([2]; AUC of prodrug in portal vein after oral dose vs AUC in jugular vein after IV dose, dose-corrected) [%] | clearance ([2]; Sprague-Dawley, rat, plasma, IV bolus 1 mg/kg, read-out: Clearance rate of prodrug) [mL/min/kg] | half-life [3] [min] |
| --- | --- | --- | --- | --- |
| COc1cc(N(C(=O)OCCN2CCOCC2)c2ncc(F)c(Nc3ccc4c(n3)NC(=O)C(C)(C)O4)n2)cc(OC)c1OC [Example 2, N4-(2,2-Dimethyl-3-oxo-4H-5-pyrido[1,4]oxazin-6-yl)-5-fluoro-N2-[[2-(morpholin-4-yl)ethoxy]carbonyl]-N2-(3,4,5-trimethoxyphenyl)-2,4-pyrimidinediamine] | < 5 | 20 | 72 | < 5 |
| COc1cc(N(C(=O)N[C@H](C(=O)OC(C)(C)C)C(C)C)c2ncc(F)c(Nc3ccc4c(n3)NC(=O)C(C)(C)O4)n2)cc(OC)c1OC [Example 8, 1S—N2-[[-1-(t-Butoxycarbonyl)-2-methylpropyl]aminocarbonyl]-N4-(2,2-dimethyl-3-oxo-4H-5-pyrido[1,4]oxazin-6-yl)-5-fluoro-N2-(3,4,5-trimethoxyphenyl)-2,4-pyrimidinediamine] | 35 |  |  | 10 |
| COc1cc(N(C(=O)OCC2CCCCN2C)c2ncc(F)c(Nc3ccc4c(n3)NC(=O)C(C)(C)O4)n2)cc(OC)c1OC (centres unmarked) [Example 3] | < 5 |  |  | < 5 |
